{"source": "patent US20240301505A1", "about": "“URINARY TRACT CANCER TREATMENT GUIDED BY MUTATIONAL LANDSCAPE” (BROWN UNIVERSITY, priority 2021, published 2024)", "origin": "cited, not measured here", "key": {"[1]": {"test_system": "Bladder tumors with ARID1A deficiencies"}, "[2]": {"test_system": "p21 protein expression", "conditions": "upon treatment"}, "[3]": {"molecular_target": "T1, CHK1 (Homo sapiens, UniProt O14757)", "T1 sequence (O14757 1-476)": "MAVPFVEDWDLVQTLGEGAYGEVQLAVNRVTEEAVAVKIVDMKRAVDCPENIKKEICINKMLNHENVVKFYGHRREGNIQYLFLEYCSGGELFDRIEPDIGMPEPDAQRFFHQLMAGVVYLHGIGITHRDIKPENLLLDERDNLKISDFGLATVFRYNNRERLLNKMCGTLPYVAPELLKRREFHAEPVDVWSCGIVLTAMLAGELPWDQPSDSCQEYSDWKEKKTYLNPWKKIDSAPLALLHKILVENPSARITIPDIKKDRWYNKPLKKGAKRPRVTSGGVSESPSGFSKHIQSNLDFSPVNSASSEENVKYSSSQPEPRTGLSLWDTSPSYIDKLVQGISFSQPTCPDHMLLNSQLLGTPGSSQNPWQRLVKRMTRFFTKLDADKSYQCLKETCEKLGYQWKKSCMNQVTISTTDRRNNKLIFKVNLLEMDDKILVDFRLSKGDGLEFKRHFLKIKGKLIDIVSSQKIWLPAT", "conditions": "in combination with gemcitabine and irinotecan"}, "[4]": {"test_system": "p21 and p53 protein expression", "conditions": "accompanied by an increase in DNA damage and intracellular hydroxyl radicals"}, "[5]": {"test_system": "G:C base pairs"}, "[6]": {"test_system": "advanced breast cancer with mutations in PIK3CA, AKT1 or PTEN and/or PTEN loss", "conditions": "monotherapy, patients with advanced breast cancer with mutations in PIK3CA"}, "[7]": {"molecular_target": "CHK2 (Homo sapiens, UniProt O96017)", "sequence (O96017 whole entry)": "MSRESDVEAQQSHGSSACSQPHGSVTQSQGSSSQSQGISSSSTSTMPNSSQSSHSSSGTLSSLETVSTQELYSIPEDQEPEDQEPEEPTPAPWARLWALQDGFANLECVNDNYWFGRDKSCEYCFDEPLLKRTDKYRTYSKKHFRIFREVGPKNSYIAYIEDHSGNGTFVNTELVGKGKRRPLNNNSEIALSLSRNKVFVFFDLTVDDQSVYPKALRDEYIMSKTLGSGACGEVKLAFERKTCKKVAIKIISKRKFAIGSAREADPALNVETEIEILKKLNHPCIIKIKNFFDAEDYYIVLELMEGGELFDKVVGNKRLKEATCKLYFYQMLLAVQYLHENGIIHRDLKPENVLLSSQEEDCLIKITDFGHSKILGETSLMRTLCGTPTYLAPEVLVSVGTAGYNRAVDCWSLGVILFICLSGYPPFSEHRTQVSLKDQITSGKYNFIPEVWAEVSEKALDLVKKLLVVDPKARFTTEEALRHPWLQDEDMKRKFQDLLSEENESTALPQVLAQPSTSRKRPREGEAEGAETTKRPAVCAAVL", "conditions": "in combination with topotecan or camptothecin"}, "[8]": {"test_system": "p21"}}}
{"molecule": "CC[C@H](C)n1cc(C)c2c(C(=O)NCc3c(C)cc(C)[nH]c3=O)cc(-c3ccc(N4CCNCC4)nc3)cc21", "note": "[GSK-126]", "values": [{"measurement": "sensitivity of tumors", "setting": "[1]", "result": "sensitive"}]}
{"molecule": "CCCCN(CCCCO)N=O", "note": "[N-butyl-N-(4-hydroxybutyl)nitrosamine]", "values": [{"measurement": "p21 protein expression", "setting": "[2]", "result": "decrease in p21 protein expression"}]}
{"molecule": "COc1cc(Nc2cnc(C#N)c(O[C@H](C)CN(C)C)n2)ncc1-c1cnn(C)c1", "note": "[CCT244747]", "values": [{"measurement": "anti-tumor activity", "setting": "[3]", "result": "showed anti-tumor activity"}]}
{"molecule": "C[As](C)(O)=S", "note": "[dimethylmonothioarsinic acid]", "values": [{"measurement": "p21 and p53 protein expression", "setting": "[4]", "result": "decrease in both p21 and p53 protein expression"}]}
{"molecule": "Nc1ccc(-c2ccccc2)cc1", "note": "[4-ABP, 4-Aminobiphenyl]", "values": [{"measurement": "mutations induced occurring at G:C base pairs", "setting": "[5]", "result": 82.9, "unit": "%"}]}
{"molecule": "NC1(c2ccc(-c3nc4ccn5c(=O)[nH]nc5c4cc3-c3ccccc3)cc2)CCC1", "note": "[MK-2206]", "values": [{"measurement": "clinical activity", "setting": "[6]", "result": "limited clinical activity"}]}
{"molecule": "C/C(=N\\N=C(N)N)c1ccc(NC(=O)c2cc3cccc([N+](=O)[O-])c3[nH]2)cc1", "note": "[PV1019]", "values": [{"measurement": "activity in combination", "setting": "[7]", "result": "showed enhanced activity"}]}
{"molecule": "Nc1ccc(-c2ccc(N)cc2)cc1", "note": "[benzidine]", "values": [{"measurement": "p21 mRNA levels", "setting": "[8]", "result": "downregulate p21 mRNA levels"}, {"measurement": "p21 protein levels", "setting": "[8]", "result": "decrease p21 protein levels"}]}
